# According to US20040062807A1, “Biocide compositions and a method for their production” (priority 2001, published 2004):
# Legend:
# [1] = system: fungus spores; assay: Fungus spore germination in growth media with fungicide composition (colony count); type: cell-based, unidentified mold; details: 3-5 days incubation
# Procedure: The fungus was allowed to grow at 25° C. for 3-5 days. At the end of this period, the diameter of the fungus on the plate was measured. All results were duplicated to assure accuracy. In a second series of experiments, the growth of fungus spores was measured under the same conditions as those described above. The number of colonies were measured, again after 3-5 days of incubation.
# [2] = system: unidentified mold; assay: Growth of mold on petri dishes with fungicide composition in growth media (diameter); type: cell-based; details: 25° C., 3-5 days
# Procedure: The fungus was allowed to grow at 25° C. for 3-5 days. At the end of this period, the diameter of the fungus on the plate was measured. All results were duplicated to assure accuracy.
# [3] = 15% composition in growth media
# [4] = 25% composition in growth media
smiles,measurement,setting,value
O=C([O-])[O-].[Ca+2] [Calcium carbonate],Fungus Germination (CFU per ml),[1]; 5% composition in growth media,100 CFU per ml
same,Fungus Germination (CFU per ml),[1]; [3],150 CFU per ml
same,Fungus Germination (CFU per ml),[1]; [4],110 CFU per ml
same,Growth of Fungus (CFU diameter),[2]; 5% composition in growth media,9 cm
same,Growth of Fungus (CFU diameter),[2]; [3],9 cm
same,Growth of Fungus (CFU diameter),[2]; [4],9 cm
